Columns and labels:
human C5aR = human C5aR (Homo sapiens (Human), UniProt P21730); assay: FLIPR assay: inhibition of C5a-mediated calcium mobilization; format: cell-based; details: stable cell line over expressing human C5aR & Gα15, human C5a at EC50 (0.1-0.25 nM)
Procedure, shortened: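 Compounds were added for 30 minutes at room temperature (1% DMSO) ahead of C5a stimulation. Before this, cells were dye-loaded for 1 h at 37° C: calcium 5 with 2.5 mM probenecid in HBSS, 20 mM HEPES, 0.1% BSA. Cells co-express human C5aR and Gα15; read-out is FLIPR Tetra calcium flux.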

CD11b = assay: Human whole blood CD11b up-regulation assay; format: cell-based; details: Homo sapiens, 2 nM human C5a, CD15+ granulocytes, read-out: hCD11b IC50
Experimental: Whole blood was collected in sodium heparin tubes and the assay started within 2 hours of the blood draw. The blood was incubated with compounds in 1% DMSO (dimethyl sulfoxide) at room temperature for 10 minutes with gentle rocking. 2 nM of human C5a was then added for 15 minutes at room temperature with gentle rocking. Following the C5a incubation period cells were washed once with cold FACS (fluorescence-activated cell sorting) buffer (phosphate buffered saline+0.5% bovine serum albumin) FITC (fluorescein isothiocyanate) mouse anti-human CD15 and PE-Cy5 (phycoerythrin-cyanine 5) mouse anti-human CD11b antibodies (Becton Dickinson) were gently mixed with the cells and allowed to incubate for 30 minutes on ice protected from the light. Cells were then washed three times with cold FACS buffer. Red blood cells (RBC) were lysed by incubating with BD FACS lysis buffer (Becton Dickinson) for 10 minutes at room temperature. Cells were pelleted and the lysing procedure was repeated until all RBCs were lysed. The remaining leukocytes were resuspended in BD lysis buffer. Samples were acquired on the LSR^11 flow cytometer and 10,000 events of the CD15+ granulocyte population were collected. The CD11b median fluorescence intensity of the CD 15+ cell population was evaluated using FACSDiva software (Becton Dickinson).

Sequence of human C5aR (P21730 whole entry): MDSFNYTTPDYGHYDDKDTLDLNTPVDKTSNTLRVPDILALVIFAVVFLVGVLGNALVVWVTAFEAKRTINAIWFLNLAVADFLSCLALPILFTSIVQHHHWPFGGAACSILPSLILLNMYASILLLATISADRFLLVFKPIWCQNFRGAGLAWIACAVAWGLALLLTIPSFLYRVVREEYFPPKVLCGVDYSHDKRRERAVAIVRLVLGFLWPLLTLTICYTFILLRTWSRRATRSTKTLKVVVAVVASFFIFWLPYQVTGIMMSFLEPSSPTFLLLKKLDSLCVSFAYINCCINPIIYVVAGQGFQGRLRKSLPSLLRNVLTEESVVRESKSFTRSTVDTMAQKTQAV

SMILES | IC50 (human C5aR) [nM] | IC50 (CD11b) [nM]
CO[C@@H]1CCN(c2nc(-c3c(C)cccc3C#N)nc3c2CN(c2cc(C(C)C)ccc2C)CC3)C[C@H]1C [Example 19-AK, 2-(6-(5-isopropyl-2-methylphenyl)-4-((3R,4R)-4-methoxy-3-methylpiperidin-1-yl)-5,6,7,8-tetrahyropyrido[4,3-d]pyrimidin-2-yl)-3-methylbenzonitrile] | 31 | 30
CO[C@@H]1CCN(c2nc(-c3c(C)cccc3C)nc3c2CN(c2cc(C4CC4)nn2C)CC3)[C@H](C)C1 [Example 23-D, 6-(3-cyclopropyl-1-methyl-1H-pyrazol-5-yl)-2-(2,6-dimethylphenyl)-4-((2R,4R)-4-methoxy-2-methylpiperidin-1-yl)-5,6,7,8-tetrahydropyrido[4,3-d]pyrimidine] | 8 | 18
Cc1ccccc1N1CCc2nc(-c3c(C)cccc3C)nc(N(C)CC(C)(C)O)c2C1 [Example 17-H, 1-((2-(2,6-Dimethylphenyl)-6-(o-tolyl)-5,6,7,8-tetrahydropyrido[4,3-d]pyrimidin-4-yl)(methyl)amino)-2-methylpropan-2-ol] | 10 | 300
[2H]C1([2H])c2c(C)cc(-c3c(C)ccc4[nH]ncc34)nc2CCN1c1cc(OC)ccc1C [Example 45, 6-(5-Methoxy-2-methylphenyl)-4-methyl-2-(5-methyl-1H-indazol-4-yl)-5,6,7,8-tetrahydro(5,5-^2H2)-1,6-naphthyridine] | 27 | 583
CO[C@@H]1CCN(c2nc(-c3c(C)cccc3Cl)nc3c2CN(c2cc(C(C)C)ccc2C)CC3)C[C@H]1C [Example 19-AH, 2-(2-chloro-6-methylphenyl)-6-(5-isopropyl-2-methylphenyl)-4-((3R,4R)-4-methoxy-3-methylpiperidin-1-yl)-5,6,7,8-tetrahydropyrido[4,3-d]pyrimidine] | 4 | 17
CO[C@@H]1CCN(c2nc(-c3c(C)ccc4[nH]nc(C)c34)nc3c2CN(c2cc(Cl)ccc2C)CC3)[C@H](C)C1 [Example 21-AG, 6-(5-chloro-2-methylphenyl)-2-(3,5-dimethyl-1H-indazol-4-yl)-4-((2R,4R)-4-methoxy-2-methylpiperidin-1-yl)-5,6,7,8-tetrahydropyrido[4,3-d]pyrimidine] | 1 | 22
Cc1ccc2[nH]nc(C)c2c1-c1nc2c(c(N3CC[C@H]4OC[C@H]4C3)n1)CN(c1c(Cl)c(C3CC3)nn1C)CC2 (racemic) [Example 69-M, (cis)-3-(6-(4-chloro-3-cyclopropyl-1-methyl-1H-pyrazol-5-yl)-2-(3,5-dimethyl-1H-indazol-4-yl)-5,6,7,8-tetrahydropyrido[4,3-d]pyrimidin-4-yl)-7-oxa-3-azabicyclo[4.2.0]octane] | 8 | 45
Cc1ccc(C(C)C)cc1N1CCc2nc(-c3cccc4[nH]cc(C)c34)nc(N3C[C@H](C)N(CC(N)=O)C[C@H]3C)c2C1 (racemic) [Example 28-D, Racemic-2-(4-(6-(5-Isopropyl-2-methylphenyl)-2-(3-methyl-1H-indol-4-yl)-5,6,7,8-tetrahydropyrido[4,3-d]pyrimidin-4-yl)-(trans)-2,5-dimethylpiperazin-1-yl)acetamide] | 4 | 58
Cc1ccc(C(C)C)cc1N1CCc2nc(-c3c(C)ccc4[nH]nc(C)c34)nc(OCC(F)F)c2C1 [Example 63-E, 4-(2,2-difluoroethoxy)-2-(3,5-dimethyl-1H-indazol-4-yl)-6-(5-isopropyl-2-methylphenyl)-5,6,7,8-tetrahydropyrido[4,3-d]pyrimidine] | 23 | 29
Cc1cc(N2CCc3nc(-c4c(C)cccc4C)nc(N4CCCC(C)(C)C4)c3C2)n(C)n1 [Example 16-O, 6-(1,3-dimethyl-1H-pyrazol-5-yl)-2-(2,6-dimethylphenyl)-4-(3,3-dimethylpiperidin-1-yl)-5,6,7,8-tetrahydropyrido[4,3-d]pyrimidine] | 90 | 2250
